# Results from paper PMC3474704 (Clinical cancer research : an official journal of the …, 2012).
# Like-named read-outs stand apart in the source and are kept apart here.
# Legend:
# [1] = tested on: HT29 tumors; assay: HT29 xenograft growth delay, combination with irinotecan; assay type: in vivo, mouse; settings: for growth delay: HT29 tumors
# [2] = tested on: Calu6 xenografts; assay: Calu6 xenograft growth delay, combination with gemcitabine; assay type: in vivo, mouse; settings: for antitumor activity of each agent alone: CCT244747 75mg/kg p.o. or gemcitabine 100mg/kg i.v. alone
# [3] = tested on: HT29 xenografts; assay: HT29 xenograft growth delay, combination with gemcitabine; assay type: in vivo, mouse
# [4] = target: T1, CDK1 (Homo sapiens, UniProt P06493); settings: versus CHK1
# [5] = tested on: Calu6
# [6] = tested on: AMPK; assay: Kinase profiling at 1 μM: AMPK; assay type: biochemical, human
# [7] = Plasma pharmacokinetics in BALB/c mice; assay type: in vivo, mouse; settings: for AUC0-∞ / peak plasma concentration: BALB/c mice
# [8] = target: CHK2 (Homo sapiens, UniProt O96017); assay: CHK2 IC50 determination; assay type: biochemical
# [9] = tested on: RSK; assay: Kinase profiling at 1 μM: RSK; assay type: biochemical, human
# [10] = tested on: HT29 colon carcinoma cells; assay: Cell cycle analysis; assay type: cell-based, human
# [11] = target: T2, CHK1 (Homo sapiens, UniProt O14757); assay: Cell-based ELISA for G2 checkpoint abrogation
# T2 sequence (O14757 1-476): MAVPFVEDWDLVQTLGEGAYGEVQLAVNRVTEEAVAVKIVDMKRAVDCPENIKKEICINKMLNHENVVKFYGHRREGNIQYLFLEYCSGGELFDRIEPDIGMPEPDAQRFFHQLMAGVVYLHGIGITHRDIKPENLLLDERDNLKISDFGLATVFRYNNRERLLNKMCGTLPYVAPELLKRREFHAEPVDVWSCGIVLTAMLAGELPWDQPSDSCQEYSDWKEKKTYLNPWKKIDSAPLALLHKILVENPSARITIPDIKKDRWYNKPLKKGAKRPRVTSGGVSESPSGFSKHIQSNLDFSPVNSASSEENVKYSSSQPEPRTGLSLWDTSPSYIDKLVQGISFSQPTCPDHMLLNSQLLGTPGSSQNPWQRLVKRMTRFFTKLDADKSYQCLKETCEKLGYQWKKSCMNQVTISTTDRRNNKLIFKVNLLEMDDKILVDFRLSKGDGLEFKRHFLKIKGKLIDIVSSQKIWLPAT
# [12] = tested on: MiaPaCa-2
# [13] = tested on: Calu6; assay: cells; settings: Homo sapiens, Calu-6, 96 h
# [14] = tested on: MAP4K; assay: Kinase profiling at 1 μM: MAP4K; assay type: biochemical, human
# [15] = target: Aurora B (Homo sapiens, UniProt Q96GD4); assay: Kinase profiling at 1 μM: Aurora B; assay type: biochemical
# [16] = tested on: S296 CHK1 autophosphorylation; assay: Biomarker changes in HT29 xenografts; assay type: in vivo, mouse; settings: 100 or 150mg/kg p.o. with gemcitabine 100mg/kg i.v., P<0.05
# [17] = tested on: 120-140 human kinases; assay: In vitro kinase profiling at 1 and 10 μM, ATP at Km; assay type: biochemical
# [18] = tested on: four human tumor cell lines; assay: cells
# [19] = tested on: pS296, pS317 and pS345 CHK1; assay: Western blotting of CHK1 phosphorylation biomarkers in HT29 cells; assay type: cell-based, human; settings: SN38, up to 5μM
# [20] = target: T1, CDK1; assay: biochemical
# [21] = target: T2, CHK1; assay: Cell-based ELISA for G2 checkpoint abrogation; remark: listed apart in the source
# [22] = tested on: SW620
# [23] = tested on: SW620; assay: cells; settings: Homo sapiens, SW-620, 96 h
# [24] = tested on: HT29
# [25] = tested on: SW620 colon carcinoma cell line; assay: Cell cycle analysis; assay type: cell-based, human
# [26] = target: NUAK1 (Homo sapiens, UniProt O60285); assay: Kinase profiling at 1 μM: NUAK1; assay type: biochemical
# [27] = target: T2, CHK1; assay: Cell-based ELISA for G2 checkpoint abrogation; remark: listed apart in the source
# [28] = target: IRAK 1 (Homo sapiens, UniProt P51617); assay: Kinase profiling at 1 μM: IRAK 1; assay type: biochemical
# [29] = tested on: MYCN-driven neuroblastoma; assay: Single agent activity in TH-MYCN transgenic mouse model of neuroblastoma; assay type: in vivo
# [30] = target: T2, CHK1; assay: cell-based
# [31] = tested on: SW620 xenografts; assay: SW620 xenograft, combination with gemcitabine; assay type: in vivo, mouse; settings: 75mg/kg p.o. with gemcitabine 100mg/kg i.v.
# [32] = Plasma protein binding by ultra filtration; assay type: in vitro ADME; settings: mouse
# [33] = In vitro metabolism in male CD1 mouse microsomes; assay type: in vitro ADME; settings: 10 μM, 30 minutes at 37°C, NADPH and UDPGA
# [34] = target: recombinant human CHK1 (Homo sapiens, UniProt O14757); assay: biochemical
# [35] = target: FLT3 (Homo sapiens, UniProt P36888); assay: FLT3 IC50 determination; assay type: biochemical
# [36] = target: T2, CHK1; settings: HT29
# [37] = tested on: HT29; assay: cells; settings: Homo sapiens, HT-29, 96 h
# [38] = target: T2, CHK1; assay: Kinase profiling at 1 μM: CHK1; assay type: biochemical
# [39] = target: TrKA (Homo sapiens, UniProt P04629); assay: Kinase profiling at 1 μM: TrKA; assay type: biochemical
# [40] = tested on: SW620 cells; assay: Contact time / scheduling study with gemcitabine in SW620
# [41] = BALB/c, mouse, in vivo, po, 10 mg/kg
# [42] = 0.5μM for 23h following etoposide 25μM × 1h
# T1 sequence (P06493 whole entry, looked up): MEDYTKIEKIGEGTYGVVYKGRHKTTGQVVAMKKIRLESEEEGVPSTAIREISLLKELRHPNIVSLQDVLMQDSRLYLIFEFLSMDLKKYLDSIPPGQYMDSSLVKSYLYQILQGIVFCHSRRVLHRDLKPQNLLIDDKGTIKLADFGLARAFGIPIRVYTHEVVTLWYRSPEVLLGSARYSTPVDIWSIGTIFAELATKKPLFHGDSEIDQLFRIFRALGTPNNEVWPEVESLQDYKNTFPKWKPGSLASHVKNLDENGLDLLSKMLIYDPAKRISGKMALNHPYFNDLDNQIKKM
# CHK2, sequence (O96017 whole entry): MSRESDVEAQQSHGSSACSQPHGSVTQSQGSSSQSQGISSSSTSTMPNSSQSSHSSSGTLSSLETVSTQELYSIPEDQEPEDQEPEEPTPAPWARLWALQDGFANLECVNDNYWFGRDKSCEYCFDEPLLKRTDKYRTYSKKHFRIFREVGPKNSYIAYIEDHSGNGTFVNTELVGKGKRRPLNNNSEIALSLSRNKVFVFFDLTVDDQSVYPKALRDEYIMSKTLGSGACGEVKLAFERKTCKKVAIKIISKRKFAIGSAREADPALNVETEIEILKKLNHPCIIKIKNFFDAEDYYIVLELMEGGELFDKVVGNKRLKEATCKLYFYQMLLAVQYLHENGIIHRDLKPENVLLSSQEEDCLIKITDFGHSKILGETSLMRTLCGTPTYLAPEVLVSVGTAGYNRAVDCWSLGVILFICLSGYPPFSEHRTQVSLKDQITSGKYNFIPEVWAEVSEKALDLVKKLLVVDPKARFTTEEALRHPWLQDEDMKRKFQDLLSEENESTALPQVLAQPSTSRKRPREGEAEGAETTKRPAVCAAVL
# FLT3, sequence (P36888 27-993): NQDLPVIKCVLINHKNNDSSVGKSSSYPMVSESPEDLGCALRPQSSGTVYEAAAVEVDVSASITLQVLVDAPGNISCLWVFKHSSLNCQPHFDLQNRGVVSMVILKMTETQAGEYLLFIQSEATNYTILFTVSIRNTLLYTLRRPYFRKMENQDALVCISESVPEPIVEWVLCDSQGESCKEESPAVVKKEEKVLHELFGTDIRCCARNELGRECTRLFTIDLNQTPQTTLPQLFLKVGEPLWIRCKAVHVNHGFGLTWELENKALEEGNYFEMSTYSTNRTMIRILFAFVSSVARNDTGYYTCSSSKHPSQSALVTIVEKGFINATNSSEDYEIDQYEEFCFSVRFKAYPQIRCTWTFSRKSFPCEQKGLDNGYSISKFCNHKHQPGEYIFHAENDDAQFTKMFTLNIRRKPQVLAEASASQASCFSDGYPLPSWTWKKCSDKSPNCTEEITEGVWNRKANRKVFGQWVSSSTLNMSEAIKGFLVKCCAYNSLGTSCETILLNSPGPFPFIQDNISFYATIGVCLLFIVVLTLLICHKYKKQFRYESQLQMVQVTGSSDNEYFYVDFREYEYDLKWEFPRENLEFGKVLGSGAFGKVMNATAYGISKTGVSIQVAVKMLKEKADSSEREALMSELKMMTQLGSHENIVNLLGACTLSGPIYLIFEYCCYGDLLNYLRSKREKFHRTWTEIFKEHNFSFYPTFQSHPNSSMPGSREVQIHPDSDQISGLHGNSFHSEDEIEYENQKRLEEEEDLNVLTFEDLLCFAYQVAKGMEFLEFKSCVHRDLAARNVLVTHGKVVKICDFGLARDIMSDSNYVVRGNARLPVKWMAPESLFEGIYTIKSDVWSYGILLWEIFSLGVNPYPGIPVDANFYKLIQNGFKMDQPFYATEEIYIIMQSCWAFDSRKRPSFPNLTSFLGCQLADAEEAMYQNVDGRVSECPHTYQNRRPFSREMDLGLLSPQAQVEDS
# Aurora B, sequence (Q96GD4 whole entry): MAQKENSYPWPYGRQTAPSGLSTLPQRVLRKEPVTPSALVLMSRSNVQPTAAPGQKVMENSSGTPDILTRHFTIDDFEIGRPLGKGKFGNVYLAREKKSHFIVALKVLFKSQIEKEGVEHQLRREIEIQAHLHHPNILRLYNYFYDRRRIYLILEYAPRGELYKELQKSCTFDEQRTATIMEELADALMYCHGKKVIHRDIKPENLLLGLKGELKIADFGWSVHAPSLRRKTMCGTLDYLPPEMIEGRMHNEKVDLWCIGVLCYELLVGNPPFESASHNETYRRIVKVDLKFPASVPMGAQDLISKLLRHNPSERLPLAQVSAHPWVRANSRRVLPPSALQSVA
# IRAK 1, sequence (P51617 whole entry): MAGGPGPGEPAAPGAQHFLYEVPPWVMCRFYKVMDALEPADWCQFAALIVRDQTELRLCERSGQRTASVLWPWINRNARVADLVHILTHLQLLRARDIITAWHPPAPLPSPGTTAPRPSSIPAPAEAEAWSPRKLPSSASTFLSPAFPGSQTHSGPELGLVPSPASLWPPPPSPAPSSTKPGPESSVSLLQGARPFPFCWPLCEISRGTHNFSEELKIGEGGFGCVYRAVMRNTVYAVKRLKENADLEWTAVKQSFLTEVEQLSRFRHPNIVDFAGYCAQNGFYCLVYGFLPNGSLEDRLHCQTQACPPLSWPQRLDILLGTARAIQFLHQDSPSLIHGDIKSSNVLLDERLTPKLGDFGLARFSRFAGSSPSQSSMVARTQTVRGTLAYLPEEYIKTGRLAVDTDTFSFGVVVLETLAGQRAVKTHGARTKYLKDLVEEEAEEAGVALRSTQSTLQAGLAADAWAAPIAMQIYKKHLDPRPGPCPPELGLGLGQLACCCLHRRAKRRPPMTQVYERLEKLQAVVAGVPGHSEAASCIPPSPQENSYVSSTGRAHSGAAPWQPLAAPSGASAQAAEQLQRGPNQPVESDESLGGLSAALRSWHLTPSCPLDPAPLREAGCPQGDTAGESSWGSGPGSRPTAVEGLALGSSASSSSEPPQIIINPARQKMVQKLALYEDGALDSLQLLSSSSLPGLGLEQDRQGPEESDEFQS
# NUAK1, sequence (O60285 whole entry): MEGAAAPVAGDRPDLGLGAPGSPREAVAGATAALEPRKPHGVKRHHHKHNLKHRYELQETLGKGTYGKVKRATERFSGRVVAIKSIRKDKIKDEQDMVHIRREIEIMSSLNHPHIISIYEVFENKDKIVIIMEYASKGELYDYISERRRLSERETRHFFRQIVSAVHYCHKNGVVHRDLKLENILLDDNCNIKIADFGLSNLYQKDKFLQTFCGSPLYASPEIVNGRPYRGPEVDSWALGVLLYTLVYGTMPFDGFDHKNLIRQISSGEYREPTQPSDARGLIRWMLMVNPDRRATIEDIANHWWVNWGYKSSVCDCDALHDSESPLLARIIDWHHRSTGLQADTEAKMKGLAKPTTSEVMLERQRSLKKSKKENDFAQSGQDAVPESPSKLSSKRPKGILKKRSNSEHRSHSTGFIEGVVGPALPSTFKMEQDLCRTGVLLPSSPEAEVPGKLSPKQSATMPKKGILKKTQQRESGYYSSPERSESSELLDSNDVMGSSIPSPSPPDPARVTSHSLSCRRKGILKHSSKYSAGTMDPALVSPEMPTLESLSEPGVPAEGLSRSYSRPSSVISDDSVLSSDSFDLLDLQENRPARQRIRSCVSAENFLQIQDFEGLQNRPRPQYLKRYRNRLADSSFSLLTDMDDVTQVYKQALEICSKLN
# TrKA, sequence (P04629 33-796): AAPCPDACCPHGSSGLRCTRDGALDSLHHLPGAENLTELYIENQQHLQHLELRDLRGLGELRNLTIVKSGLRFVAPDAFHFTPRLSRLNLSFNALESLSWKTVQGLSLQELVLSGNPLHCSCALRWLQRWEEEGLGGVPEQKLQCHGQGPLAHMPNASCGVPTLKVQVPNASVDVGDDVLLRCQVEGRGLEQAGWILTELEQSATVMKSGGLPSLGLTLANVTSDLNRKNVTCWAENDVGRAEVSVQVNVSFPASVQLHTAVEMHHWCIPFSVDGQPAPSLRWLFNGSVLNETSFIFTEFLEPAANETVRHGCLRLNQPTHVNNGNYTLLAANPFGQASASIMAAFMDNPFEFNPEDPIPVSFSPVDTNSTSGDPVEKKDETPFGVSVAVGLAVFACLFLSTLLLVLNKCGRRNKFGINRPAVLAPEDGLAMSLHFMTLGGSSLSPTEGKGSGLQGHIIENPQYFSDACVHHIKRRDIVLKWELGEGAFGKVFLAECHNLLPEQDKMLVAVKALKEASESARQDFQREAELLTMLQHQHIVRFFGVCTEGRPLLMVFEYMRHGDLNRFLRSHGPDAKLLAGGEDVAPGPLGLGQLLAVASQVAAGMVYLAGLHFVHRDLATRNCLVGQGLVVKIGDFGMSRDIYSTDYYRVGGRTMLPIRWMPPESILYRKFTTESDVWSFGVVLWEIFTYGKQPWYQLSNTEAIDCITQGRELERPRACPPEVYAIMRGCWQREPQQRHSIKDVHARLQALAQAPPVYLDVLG
structure (smiles),measurement,setting,value
"CCc1c2c(nc3ccc(OC(=O)N4CCC(N5CCCCC5)CC4)cc13)-c1cc3c(c(=O)n1C2)COC(=O)[C@]3(O)CC [irinotecan, reference compound]",growth delay,"[1]; irinotecan alone 25mg/kg i.p. days 0, 4, 8",6.9 days
"Nc1ccn([C@@H]2O[C@H](CO)[C@@H](O)C2(F)F)c(=O)n1 [gemcitabine, reference compound]",antitumor activity of each agent alone,[2]; Calu6 xenografts,minimal activity
same,growth delay,"[3]; gemcitabine alone 100mg/kg i.v. days 0, 7, 14",2.3 days
COc1cc(Nc2cnc(C#N)c(O[C@H](C)CN(C)C)n2)ncc1-c1cnn(C)c1 [CCT244747],selectivity against CDK1,[4],"more than 1,000 fold"
same,Potentiation Index (PI),[5]; Gem,5.6±0.96 (n=3)
same,Potentiation Index (PI),[5]; SN38,1.4±0.24 (n=3)
same,inhibition,[6],> 50%
same,AUC0-∞,[7]; 10mg/kg i.v.,3.93 μMh
same,peak plasma concentration,"[7]; 10mg/kg i.v., at 5 min",3.62 µM
same,AUC0-∞,[7]; 10mg/kg oral,2.43 μMh
same,peak plasma concentration,[7]; 10mg/kg oral,0.98 µM
same,clearance,"[7]; BALB/c, mouse, in vivo, 10 mg/kg",103 mL/min/kg
same,half-life,"[7]; BALB/c, mouse, in vivo, iv, 10 mg/kg",40.2 min
same,bioavailability,[7]; [41],62%
same,half-life,[7]; [41],55.2 min
same,IC50,[8],> 10000 nM
same,selectivity against CHK2,[8]; versus CHK1,"more than 1,000 fold"
same,inhibition,[9],> 50%
same,further cells accumulating in G2/M,[10]; 0.1μM with SN38 20nM × 24h,33.8%
same,reduction of SN38-induced S-phase arrest,[10]; 0.1μM with SN38 20nM × 24h,42.3%
same,increase in G1,[10]; [42],9.6%
same,loss of G2/M cells,[10]; [42],30%
same,S' population (S-phase cells not incorporating BrdU),"[10]; 0.5μM for 23h following etoposide, increased from 1.2",17.7%
same,effect alone on the cell cycle,"[10]; alone, up to 0.5μM × 24h",minimal effects
same,S'-phase cells,"[10]; increasing concentrations with SN38 20nM × 24h, increased from 5",42.1%
same,IC50,[11],29 to 170 nM
same,growth delay,[1]; 150mg/kg p.o. added to irinotecan 25mg/kg i.p.,13.5 days
same,growth delay,[1]; 150mg/kg p.o. alone,0.3 days
same,nadir of body weight loss,"[1]; combination with irinotecan, day 10",1.3%
same,Potentiation Index (PI),[12]; Gem,16±6.3 (n=5)
same,Potentiation Index (PI),[12]; SN38,5.0±0.82 (n=5)
same,GI50,[13],330 ± 51 nM
same,inhibition,[14],> 50%
same,inhibition at 1 µM,[15],> 50%
same,effect on gemcitabine induced S296 CHK1 autophosphorylation in vivo,[16],significantly decreased
same,number of kinases with >50% inhibition,"[17]; 1μM, panel of 140 kinases",8
same,number of kinases inhibited by ≥80%,"[17]; 10μM, total of 121 kinases",9
same,GI50,[18],330 to 3000 nM
same,abolition of S317 and S345 CHK1 phosphorylation,[19],neither phosphorylation was completely abolished
same,IC50,[20],> 10000 nM
same,growth delay,"[2]; Calu6 xenografts, 75mg/kg p.o. added to gemcitabine 100mg/kg i.v.",15.9 days
same,antitumor activity of each agent alone,[2]; Calu6 xenografts,minimal activity
same,"increase in growth delay, combination versus gemcitabine alone","[2]; Calu6 xenografts, P<0.001",8.7 days
same,nadir of body weight loss,"[2]; combination with gemcitabine, day 8",5.4%
same,IC50,[21],44 ± 10 nM
same,Potentiation Index (PI),[22]; 5FU,4.9±0.8 (n=3)
same,Potentiation Index (PI),[22]; 5FdU,47±14 (n=3)
same,Potentiation Index (PI),[22]; CDDP,4.2±0.87 (n=3)
same,Potentiation Index (PI),[22]; Etop,4.9±2.2 (n=3)
same,Potentiation Index (PI),[22]; Gem,12.2±2.7 (n=5)
same,Potentiation Index (PI),[22]; IR +1h,4.9±1.6 (n=4)
same,Potentiation Index (PI),[22]; IR −1h,4.5±1.2 (n=4)
same,Potentiation Index (PI),[22]; SN38,2.6±0.6 (n=3)
same,GI50,[23],3000 ± 1200 nM
same,Potentiation Index (PI),[24]; 5FU,2.2±0.2 (n=3)
same,Potentiation Index (PI),[24]; 5FdU,9.6±1.2 (n=3)
same,Potentiation Index (PI),[24]; CDDP,1.8±0.32 (n=3)
same,Potentiation Index (PI),[24]; Etop,1.9±0.63 (n=4)
same,Potentiation Index (PI),[24]; Gem,8.5±1.6 (n=4)
same,Potentiation Index (PI),[24]; IR +1h,3.0±0.67 (n=4)
same,Potentiation Index (PI),[24]; IR −1h,3.9±0.32 (n=4)
same,Potentiation Index (PI),"[24]; SN38, SRB GI50 / Combination GI50",1.9±0.14 (n=4)
same,effect alone on the cell cycle,"[25]; alone, up to 1μM × 24h",minimal effects
same,increase in G1,[25]; with gemcitabine 10nM × 24h,4.4%
same,increase in S'-phase,[25]; with gemcitabine 10nM × 24h,19%
same,reduction in S-phase,[25]; with gemcitabine 10nM × 24h,28.8%
same,inhibition at 1 µM,[26],> 50%
same,IC50,[27],94 ± 66 nM
same,inhibition at 1 µM,[28],> 50%
same,tolerability,"[29]; TH-MYCN mice, 100mg/kg p.o. × 7 days",well tolerated with no drug-related morbidity
same,effect on tumor versus vehicle treated controls (final tumor weight),"[29]; TH-MYCN neuroblastoma, 100mg/kg p.o. × 7 days, P<0.001",significant tumor shrinkage
same,tumor volume reduction by MRI,"[29]; TH-MYCN neuroblastoma, 100mg/kg p.o. × 7 days, one example tumor",79%
same,post-treatment tumor volume (MRI),"[29]; TH-MYCN neuroblastoma, 100mg/kg p.o. × 7days, pre-treatment 1960mm^3",417 mm^3
same,IC50,[30],170 ± 5.8 nM
same,antitumor activity combined with gemcitabine,[31],Modest activity
same,"fraction unbound at 1 h, 10 μM",[32],0.244
same,microsomal metabolism,[33],45%
same,IC50,[34],8 nM
same,IC50,[35],600 nM
same,selectivity against FLT3,[35]; versus CHK1,75 fold
same,therapeutic window (ratio of MIA and GI50),[36],21 fold
same,GI50,[37],620 ± 230 nM
same,inhibition of CHK1 in kinase profiling,[38],marked inhibition
same,growth delay,[3]; 75mg/kg p.o. added to gemcitabine 100mg/kg i.v.,11.4 days
same,antitumor effect alone,[3]; 75mg/kg p.o. alone,minimal effect
same,"difference in growth delay, combination versus gemcitabine alone",[3]; P<0.001,9.1 days
same,body weight loss,[3]; combination with gemcitabine,minimal body weight loss
same,inhibition at 1 µM,[39],> 50%
C[C@H](CN(C)C)Oc1nc(Nc2cc3cccc(Cl)c3cn2)cnc1C#N [SAR-020106],enhancement of gemcitabine activity,[40]; exposures <24h,minimal enhancement
same,continuous exposure giving maximum potentiation of gemcitabine cytotoxicity,[40]; gemcitabine,≥ 48 h
"COc1cc([C@@H]2c3cc4c(cc3[C@@H](O[C@@H]3O[C@@H]5CO[C@@H](C)O[C@H]5[C@H](O)[C@H]3O)[C@H]3COC(=O)[C@H]23)OCO4)cc(OC)c1O [etoposide, reference compound]",cells in G2/M,"[10]; etoposide 25μM × 1h, measured at 24h",70.5%
